# Results from the NIST ThermoML archive (doi:10.1021/je300810p).
# Numbers after ± are expanded uncertainties.
# What was measured:
# [1] = Liquid; for mass density: 101.33 kPa, Pycnometric method
# [2] = refractive index (Na D-line) (dimensionless); conditions: 101.33 kPa, Liquid, Standard Abbe refractometry
mass density ([1]; 298.15 K),vapor or sublimation pressure ([1]; 391.43 K),refractive index ([2]; 298.15 K),mass density ([1]; 289.15 K),vapor or sublimation pressure ([1]; 293.91 K),refractive index ([2]; 293.15 K),vapor or sublimation pressure ([1]; 351.46 K),SMILES
1049.42 ± 0.45 kg/m3,101.33 ± 3.4 kPa,1.3716 ± 0.0025,–,–,–,–,CC(=O)O [acetic acid]
–,–,–,788.02 ± 0.36 kg/m3,101.33 ± 2.6 kPa,1.3328 ± 0.0025,–,CC=O [ethanal]
784.88 ± 0.36 kg/m3,–,1.3592 ± 0.0025,–,–,–,101.33 ± 2.6 kPa,CCO [ethanol]
